Results from ChEMBL document CHEMBL1201862, “PubChem BioAssay data set” (2004).
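Interpolation was linear, between the two tested concentrations surrounding the appropriate level; five concentrations were tested over 48 hours in 96-well plates. GI50 = concentration required for 50% inhibition of growth.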 The source made the active and inactive calls. Cut-off read from the data, not from the text of the source: active = GI50 up to about 1.1 µM and inactive = higher.

Assays:
Test in all cases: inhibition of tumour cell growth, NCI panel, 48 h
A549 = test system: A549
BT-549 = test system: BT-549
CAKI-1 = test system: CAKI-1
DU-145 = test system: DU-145
HL-60 = test system: HL-60
Hs-578T = test system: Hs-578T
IGROV-1 = test system: IGROV-1
KM12 = test system: KM12
M14 = test system: M14
MDA-MB-231 = test system: MDA-MB-231
MDA-MB-435 = test system: MDA-MB-435
NCI/ADR-RES = test system: NCI/ADR-RES
SK-MEL-5 = test system: SK-MEL-5
SN12C = test system: SN12C
SR = test system: SR
T47D = test system: T47D
UACC-257 = test system: UACC-257
UACC-62 = test system: UACC-62
UO-31 = test system: UO-31
NCI-H226 = test system: NCI-H226

Measured: GI50

COc1cc(/C=C2\N=C(c3ccccc3)N(c3nc4cc(C)c(C)cc4s3)C2=O)ccc1O
inactive: A549 40.7 µM | BT-549 46.3 µM | CAKI-1 36.6 µM | DU-145 61.7 µM | HL-60 18.7 µM | Hs-578T 30.8 µM | IGROV-1 21.4 µM | KM12 17.8 µM | M14 47.4 µM | MDA-MB-231 66.1 µM | MDA-MB-435 12.6 µM | NCI/ADR-RES 42.3 µM | SK-MEL-5 31.3 µM | SN12C 25.8 µM | SR 19.9 µM | T47D 44.1 µM | UACC-257 21.3 µM | UACC-62 26.6 µM | UO-31 40.3 µM

C=C(C)C1=CCC[C@]2(C1)N=C(OC)[C@@H](C(C)C)N=C2OC
inactive: A549 > 100 µM | BT-549 > 100 µM | CAKI-1 > 100 µM | DU-145 > 100 µM | HL-60 28.3 µM | Hs-578T > 100 µM | IGROV-1 47.1 µM | KM12 > 100 µM | M14 > 100 µM | MDA-MB-231 > 100 µM | MDA-MB-435 40.1 µM | NCI-H226 > 100 µM | NCI/ADR-RES > 100 µM | SK-MEL-5 98.6 µM | SN12C > 100 µM | T47D > 100 µM | UACC-257 > 100 µM | UACC-62 > 100 µM | UO-31 96.4 µM

CC(=O)OC1CCC2(C)C(CCC3C2CC(=O)C2(C)C3CC(N3CC3)C2C(C)=O)C1 (stereo not given)
inactive: A549 27.4 µM | BT-549 17.4 µM | CAKI-1 16.1 µM | DU-145 32.6 µM | Hs-578T 15.1 µM | IGROV-1 13.6 µM | KM12 17.1 µM | M14 20.2 µM | MDA-MB-231 16.7 µM | MDA-MB-435 17.9 µM | NCI-H226 19.1 µM | NCI/ADR-RES 24.6 µM | SK-MEL-5 15.2 µM | SN12C 21.9 µM | SR 1.78 µM | T47D 18.7 µM | UACC-257 17.3 µM | UACC-62 16.2 µM | UO-31 18 µM

CCNc1nnc(-c2ccccc2Nc2ccccc2-c2nnc(NCC)s2)s1
inactive: A549 13.5 µM | BT-549 19.6 µM | CAKI-1 2.85 µM | DU-145 4.72 µM | Hs-578T 12.3 µM | IGROV-1 6.18 µM | KM12 9.46 µM | M14 14.5 µM | MDA-MB-231 8.02 µM | MDA-MB-435 17.4 µM | NCI-H226 20.2 µM | NCI/ADR-RES 10.5 µM | SK-MEL-5 5.52 µM | SN12C 18.9 µM | SR 47.8 µM | T47D 5.32 µM | UACC-257 23.6 µM | UACC-62 11.5 µM | UO-31 4.71 µM

COC(=O)[C@]1(c2cc3ccccc3[nH]2)CC2CN(C(=O)OCc3ccccc3)C1CC2=O (stereo not given in full)
inactive: A549 23.3 µM | BT-549 29.3 µM | CAKI-1 38.5 µM | DU-145 38.8 µM | HL-60 16.4 µM | Hs-578T 19.4 µM | IGROV-1 29.7 µM | KM12 26.9 µM | M14 30.5 µM | MDA-MB-231 12.8 µM | MDA-MB-435 30.1 µM | NCI-H226 18.2 µM | NCI/ADR-RES 29.3 µM | SK-MEL-5 17.1 µM | SN12C 17.4 µM | T47D 22.5 µM | UACC-257 36.3 µM | UACC-62 17.1 µM | UO-31 21.3 µM

Cn1c(=O)c2c(nc(NCCNc3nc4c(c(=O)n(C)c(=O)n4C)n3C)n2C)n(C)c1=O
inactive: A549 > 100 µM | BT-549 > 100 µM | CAKI-1 > 100 µM | DU-145 > 100 µM | Hs-578T > 100 µM | IGROV-1 > 100 µM | KM12 > 100 µM | M14 > 100 µM | MDA-MB-231 > 100 µM | MDA-MB-435 > 100 µM | NCI-H226 > 100 µM | NCI/ADR-RES > 100 µM | SK-MEL-5 > 100 µM | SN12C > 100 µM | SR > 100 µM | T47D > 100 µM | UACC-257 > 100 µM | UACC-62 > 100 µM | UO-31 > 100 µM

Cc1ccc(C2SC(=N)Nc3c2c(C)nn3C(=O)c2ccccc2O)cc1 (stereo not given)
inactive: A549 3.16 µM | BT-549 > 10 µM | CAKI-1 > 10 µM | DU-145 > 10 µM | Hs-578T 1.51 µM | IGROV-1 2.81 µM | KM12 > 10 µM | M14 > 10 µM | MDA-MB-231 > 10 µM | MDA-MB-435 3.78 µM | NCI-H226 > 10 µM | NCI/ADR-RES > 10 µM | SK-MEL-5 4.37 µM | SN12C > 10 µM | SR > 10 µM | T47D > 10 µM | UACC-257 > 10 µM | UACC-62 1.41 µM | UO-31 6.87 µM

CN(C)CCNc1nc2ccccc2c2c1CCCC2
inactive: A549 32.6 µM | BT-549 33.1 µM | CAKI-1 16.9 µM | DU-145 33.9 µM | HL-60 14.8 µM | Hs-578T 32.7 µM | IGROV-1 17.2 µM | KM12 19.3 µM | M14 16.5 µM | MDA-MB-231 14.7 µM | MDA-MB-435 18.2 µM | NCI-H226 21.1 µM | NCI/ADR-RES 25.1 µM | SK-MEL-5 15.3 µM | SN12C 22.9 µM | T47D 16.7 µM | UACC-257 15.1 µM | UACC-62 16.4 µM | UO-31 11.2 µM

CCOc1ccc(N/C(Cl)=C(Cl)\C(=C(\Nc2ccc(OCC)cc2)n2nnc3ccccc32)[N+](=O)[O-])cc1
inactive: A549 23.3 µM | BT-549 3.85 µM | CAKI-1 1.14 µM | DU-145 14.5 µM | Hs-578T 2.58 µM | IGROV-1 1.79 µM | KM12 19.1 µM | M14 4.75 µM | MDA-MB-231 6.08 µM | MDA-MB-435 6.95 µM | NCI-H226 19.4 µM | NCI/ADR-RES 15.2 µM | SK-MEL-5 8.49 µM | SN12C 7.94 µM | SR 1.45 µM | T47D 4.47 µM | UACC-257 8.3 µM | UACC-62 15.7 µM | UO-31 4.45 µM

[O-][n+]1onc(-c2ccccc2)c1CN1CCOCC1
inactive: A549 > 100 µM | BT-549 > 100 µM | CAKI-1 > 100 µM | DU-145 > 100 µM | HL-60 20.7 µM | Hs-578T 68.1 µM | IGROV-1 80 µM | KM12 > 100 µM | M14 > 100 µM | MDA-MB-231 > 100 µM | MDA-MB-435 > 100 µM | NCI-H226 > 100 µM | NCI/ADR-RES > 100 µM | SK-MEL-5 > 100 µM | SN12C > 100 µM | T47D 71.6 µM | UACC-257 > 100 µM | UACC-62 68.1 µM | UO-31 77.1 µM
